Patent US8623996B2, “Cold active enzyme and method thereof” (University Putra Malaysia, priority 2010, dated 2014)
Square brackets hold non-standard residues; d marks the D form. Peptide text beside a SMILES is read from it. * marks the point of attachment. Sta = CC(C)C[C@H](N)[C@@H](O)CC(=O)O; Isovaleryl = CC(C)CC(=O)*

Columns and labels:
LipPI12 protease [1] = test: Effect of metal ions on LipPI12 protease activity; type: biochemical, Leucosporodium antarcticum PI12; settings: 1 mM metal ion, 30 min at 20° C.
Procedure: (§1) Both the lipase and protease were treated with 1 mM of various metal ions for 30 mins prior to enzyme assays. Lipase activity ?; protease activity ? .
(§2) Various metal ions were tested by treating the purified enzyme with 1 mM of metal ions such as Na^+, Mg^2+, Ca^2+, Fe^2+, Mn^2+, K^+, Zn^2+ and Cu^2+ for 30 min at 20° C. It was subjected to lipase and protease assays after treatment. The effects of various metal ions were tested on the purified LipPI12 activity and the remaining activity was assayed using olive oil emulsion. […] This is an indication which explains the role of Ca ion which may work as a stabilizer to the molecule, as predicted in the LipPI12 3D model. Whereas, the beta roll motif, served as a metal binding site, presumably predicted for the Ca ions. […] Na^+ Mg^2+ and Fe^2+ have toxic effect to the enzyme. Other metal ions tested were CuCl2, ZnCl2 and MnCl2, which had obviously made the lipase to be slightly stable and with no elimination of activity relatively not less than 50% (FIG. 27).
Protease LipPI12 looks more susceptible to all metal ions tested. […] The incubation with Na^+ and […] ions had done little effect as compared to the destabilizing manner shown by divalent ions of Cu^2+ and Mn^2+. […] A novel binding site for Zn ion may be involved in protease LipPI12. Structural elucidation is the best way to decipher the findings. The activation effect of Ca ion in both lipase and protease of LipPI12 is caused by the nature of the psychrophilic enzyme. Huge conformational movement will probably allow active residue rearrangement and can provide better accessibility of substrate, thus giving rise to a unique enzyme like LipPI12. This is achieved via local flexibility and mobility as the enzyme from psychrophiles evolves to withstand the extreme conditions, not only the coldness but also the low water content and substrate availability. Metal ions have been recognized to have effects on the activity of various enzymes. They bind the substrate and orient them properly for the reaction to occur. Besides mediating oxidation-reduction reactions, they can also electrostatically stabilize or shield negative charges. On the other hand, based on the correlation between the enzymes and metal ions, these enzymes could be classified into two types: Metalloenzymes and Metal-activated enzyme. In Metalloenzyme, metal ions such as Fe, Cu, Mn, Co are tightly bound ion pairs. While in the metal-activated enzymes, the metal ions such as Na, K, Mg, and Ca are loosely bound metal ions from the solution. Based on these facts, the protease LipPI12 is considered as a metal-activated enzyme.

LipPI12 protease [2] = test: Effect of surfactants on LipPI12 protease activity; type: biochemical, Leucosporodium antarcticum PI12; settings: 0.1% surfactant, 20° C., 30 min
Procedure: (§3) The purified LipPI12 lipase and protease were mixed with surfactants (final concentration of 0.1%, v/v) and was incubated at 20° C. for 30 min prior to enzymatic assays. Lipase activity ?; Protease activity ? .
(§4) Surfactants or surface active agents are the most important constituents in the formulation of detergent. Enzyme and surfactants form unique interactions that affect the function of enzyme, i.e. whether to stabilize or destabilize. […] Lipase and protease LipPI12 was treated with various surfactants at a concentration of […] at 20° C. for 30 min before being subjected to lipase and protease assays colorimetrically. The study on the effect of LipPI12 lipase and its protease on various surfactants was carried out using 0.1% of surfactant, namely from TWEEN™ 20-80, TRITON™ X-100, SDS and SLS. […] Remarkably, LipPI12 protease was activated in the presence of TWEEN™ 80 and SLS, with 30 and 70% enhancement, respectively. […] The incubation with SDS also seemed to affect LipPI12 protease catalytic activity, where it dropped to only 27% of its control activity.

LipPI12 lipase [3] = test: Organic solvent tolerance of LipPI12 lipase; type: biochemical, Leucosporodium antarcticum PI12; settings: 3 ml enzyme solution + 1 ml solvent, 20° C., 30 min
Procedure: (§5) Protease activity ?; Lipase activity ? .
(§6) Study On LipPI12 organic solvent stability was carried out in reaction mixture containing purified LipPI12 and various solvents. The mixture was incubated at 20° C. with shaking rates at 150 rpm for 30 min. Control reaction was done by mixing the enzyme with water. Relative activity of lipase was determined according Kwon and Rhee (1986) method. Whereby protease assay was done according to Brock et, al., (1982). The effects of various organic solvents on the stability of the cold active LipPI12 were studied. A mixture of 3 ml enzyme solution and 1 ml of an organic solvent was incubated at 20° C. with shaking, and the remaining activity was measured after 30 min of incubation.

LipPI12 protease [4] = test: Effect of inhibitors on LipPI12 protease activity; type: biochemical, Leucosporodium antarcticum PI12; settings: 1 mM inhibitor, 20° C., 30 min
Procedure: (§7) The final concentration of inhibitors was 1 mM. The LipPI12 lipase and protease were assayed with olive oil as substrate after incubation with inhibitors for 30 min.
(§8) Partial understanding of the enzyme catalysis involves the reaction with various inhibitors. […] Various inhibitors were tested at a final concentration of 1 mM (PMSF, EDTA and pepstatin). The purified enzyme was treated with various inhibitors at 20° C. for 30 min prior to measuring the residual activity colorimetrically.

LipPI12 lipase [5] = test: Effect of inhibitors on LipPI12 lipase activity; type: biochemical, Leucosporodium antarcticum PI12; settings: 1 mM inhibitor, 20° C., 30 min
Procedure: as §7, §8

isolate PI12 = test: Antibiotic resistance of isolate PI12; type: cell-based, Leucosporodium antarcticum
Procedure: The bacterium was grown in nutrient broth and agar plates at 4° C. without shaking. Visible growth was observed after one week of incubation. […] The growth of isolate PI12 was inhibited at 25-37° C.
Extracellular enzyme activities, by isolate PI12 namely protease and lipase, were also observed.

LipPI12 lipase [6] = test: Effect of metal ions on LipPI12 lipase activity; type: biochemical, Leucosporodium antarcticum PI12; settings: 1 mM metal ion, 30 min at 20° C.
Procedure: as §1, §2

LipPI12 lipase [7] = test: Effect of surfactants on LipPI12 lipase activity; type: biochemical, Leucosporodium antarcticum PI12; settings: 0.1% surfactant, 20° C., 30 min
Procedure: as §3, §4
Target sequence in this assay (as listed by the source): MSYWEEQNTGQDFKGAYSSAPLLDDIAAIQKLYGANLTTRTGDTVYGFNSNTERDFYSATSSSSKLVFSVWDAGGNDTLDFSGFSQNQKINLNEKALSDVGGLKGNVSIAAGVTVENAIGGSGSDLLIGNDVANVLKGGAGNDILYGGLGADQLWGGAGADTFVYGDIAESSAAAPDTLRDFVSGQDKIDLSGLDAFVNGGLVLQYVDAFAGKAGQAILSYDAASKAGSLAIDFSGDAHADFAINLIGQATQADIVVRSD

LipPI12 protease [8] = test: Organic solvent tolerance of LipPI12 protease; type: biochemical, Leucosporodium antarcticum PI12; settings: 3 ml enzyme solution + 1 ml solvent, 20° C., 30 min
Procedure: as §5, §6

LipPI12 lipase [9] = test: Substrate specificity of LipPI12 lipase, para-nitrophenyl esters; type: biochemical, Leucosporodium antarcticum PI12; settings: versus butyrate (C4), caprylate (C8), laurate (12)
Procedure: Values in bracket represent the fatty acid carbon chain length.
(§9) Various triglycerides (triacetin, tributyrin, tricaprylin, triolein) p-nitrophenol esters (p-nitrophenylbutyrate, p-nitrophenylcaprylate, p-nitrophenyllaurate, p-nitrophenylpalmitate) and natural oils (olive oil, soy bean oil, corn oil, sun flower oil, rice brain oil, coconut and palm oil) were tested for the cold active LipPI12 lipase activity. It was assayed at 20° C. for 30 min colorimetrically. The capability of the LipPI12 to hydrolyze different carbon chain lengths of triglycerides was investigated. […] LipPI12 lipase substrate specificity towards medium chain length was also observed in natural oils. […] LipPI12 low efficiency or inability to catalyze such substrate was probably due to improper substrate and active coordination and limited substrate accessibility as a result of cis conformation of aliphatic chain when compared to the trans conformation which is much linear. Artificial substrate was also used in the form of esters, namely para-nitrophenyl (pNP) esters containing carbon chain ranging from C4 (butyrate) to C16 (palmitate). […] Certainly, LipPI12 broad substrate specificity, which posed a huge prospect in application and the understanding of mechanism, is important. Nonetheless, the profile of substrate is a crucial point, where accessibility determines substrate specificity. […]

LipPI12 lipase [10] = test: Substrate specificity of LipPI12 lipase, pure triglycerides; type: biochemical, Leucosporodium antarcticum PI12; settings: 20° C., 30 min, substrate 1:1 v/v
Procedure: Values in bracket represent the carbon chain length of each substrate. LipPI12 lipase was assayed with the pure triglycerides (1:1, v/v) as substrate.
as §9, with “important.” for “important. Nonetheless, the profile of substrate is a crucial point, where accessibility determines substrate specificity.”

[K+] [IC]
effect of metal ion on protease activity (LipPI12 protease [1]): little effect

CCCCCCCCCCCCOS(=O)(=O)[O-].[Na+] [SLS, Sodium lauryl sulphate]
enhancement of protease activity (LipPI12 protease [2]): 70%

c1ccccc1 [benzene]
effect of organic solvent on lipase (LipPI12 lipase [3]): good stability

O=S(=O)(F)Cc1ccccc1 [PMSF, phenylmethylsulphonyl fluoride]
inhibition of protease (words) (LipPI12 protease [4]): partially inhibited | inhibition of lipase (LipPI12 lipase [5]): partially inhibited

[Cl][Mn][Cl] [MnCl2]
protease relative activity as compared to the control (LipPI12 protease [1]): 40%

CC1(C)S[C@@H]2[C@H](NC(=O)[C@H](N)c3ccccc3)C(=O)N2[C@H]1C(=O)O [Ampicilin]
resistance of isolate PI12 (isolate PI12): resistance

[Cl-].[Cl-].[Mg+2] [Mg^2+, MgCl2]
effect of metal ion on protease activity (LipPI12 protease [1]): activator | protease relative activity as compared to the control (LipPI12 protease [1]): ~100% | effect of metal ion on lipase activity (LipPI12 lipase [6]): toxic effect

CC(C)CC(=O)N[C@H](C(=O)N[C@H](C(=O)N[C@@H](CC(C)C)[C@@H](O)CC(=O)N[C@@H](C)C(=O)N[C@@H](CC(C)C)[C@@H](O)CC(=O)O)C(C)C)C(C)C [Pepstatin] (Isovaleryl-VV[Sta]A[Sta]-OH)
inhibition of protease (words) (LipPI12 protease [4]): drastically eliminated | inhibition of protease (words) (LipPI12 protease [4]; listed as pepstatin): inhibited

[Cl][Fe]([Cl])[Cl] [FeCl3]
effect of metal ion on protease activity (LipPI12 protease [1]): do not affect

O=C(O)CN(CCN(CC(=O)O)CC(=O)O)CC(=O)O [EDTA, ethylene diamine tetraacetic acid]
inhibition of protease (words) (LipPI12 protease [4]): partially inhibited | inhibition of lipase (LipPI12 lipase [5]): partially inhibited

[Na+] [Na^+]
effect of metal ion on protease activity (LipPI12 protease [1]): little effect | effect of metal ion on lipase activity (LipPI12 lipase [6]): toxic effect

[Ca+2].[Cl-].[Cl-] [CaCl2]
protease relative activity as compared to the control (LipPI12 protease [1]): ~100% | effect of metal ion on lipase activity (LipPI12 lipase [6]): activator | lipase activity as compared to the control (LipPI12 lipase [6]; olive oil emulsion): 115%

CCCCCC [hexane]
effect of organic solvent on lipase (LipPI12 lipase [3]): total elimination of activity

TWEEN™ 80
enhancement of protease activity (LipPI12 protease [2]): 30%

TWEEN™ 60
effect of surfactant on lipase activity (LipPI12 lipase [7]): retains its activity | effect of surfactant on protease activity (LipPI12 protease [2]): retain its activity

CCCCCCCCCCCC [dodecane]
effect of organic solvent on lipase (LipPI12 lipase [3]): good stability

CCCCCCCCCCCCCCCC [hexadecane]
effect of organic solvent on protease (LipPI12 protease [8]): tolerance | effect of organic solvent on lipase (LipPI12 lipase [3]): good stability

CCCCCCCCCCCCCCCC(=O)Oc1ccc([N+](=O)[O-])cc1 [pNP palmitate, p-nitrophenylpalmitate]
increment of activity relative to other pNP esters (LipPI12 lipase [9]): 60%

CCCCCCCCCC [decane]
effect of organic solvent on lipase (LipPI12 lipase [3]): total elimination of activity

CCCCCCCCCCCC(=O)OCC(COC(=O)CCCCCCCCCCC)OC(=O)CCCCCCCCCCC [trilaurin]
relative activity, triglyceride as substrate (LipPI12 lipase [10]): 100%

[Fe+2] [Fe^2+]
protease relative activity as compared to the control (LipPI12 protease [1]): ~100% | effect of metal ion on lipase activity (LipPI12 lipase [6]): toxic effect

TWEEN™ 40
effect of surfactant on lipase activity (LipPI12 lipase [7]): retains its activity | effect of surfactant on protease activity (LipPI12 protease [2]): retain its activity

CCOCC [Diethyleter]
effect of organic solvent on lipase (LipPI12 lipase [3]): total elimination of activity

O=S(=O)([O-])[O-].[Zn+2] [ZnSO4]
effect of metal ion on protease activity (LipPI12 protease [1]): do not affect

CCCCCCCCCCCCOS(=O)(=O)[O-].[Na+] [SDS]
protease activity remaining, of control activity (LipPI12 protease [2]): 27%

CCCO [propanol]
lipase activity in solvent (LipPI12 lipase [3]; control in water): > 160%

[Cl][Cu][Cl] [CuCl2]
effect of metal ion on protease activity (LipPI12 protease [1]): do not affect | protease relative activity as compared to the control (LipPI12 protease [1]): 4%

[Cl-].[Cl-].[Zn+2] [ZnCl2]
effect of metal ion on protease activity (LipPI12 protease [1]): activator | protease relative activity as compared to the control (LipPI12 protease [1]): 170%

TRITON™ X-100
effect of surfactant on lipase activity (LipPI12 lipase [7]): retains its activity | effect of surfactant on protease activity (LipPI12 protease [2]): retain its activity

dimethylsulfonyl
effect of organic solvent on protease (LipPI12 protease [8]): tolerance | increase of lipase activity (LipPI12 lipase [3]): ~80%

Cc1ccccc1 [toluene]
decrease of lipase activity (LipPI12 lipase [3]): more than 50%

O=C(N[C@H](CO)[C@H](O)c1ccc([N+](=O)[O-])cc1)C(Cl)Cl [Chloramphenicol]
resistance of isolate PI12 (isolate PI12): resistance
